Consider 3 molecules from patent publication US20220347260A1, “Combination of An Agonist Anti-PD-1 Antibody With a GnRH Agonist or Antagonist to Treat Cancer” (Debiopharm International SA, priority 2017, published 2022).

The test system of one experiment is melanoma. The conditions noted are these: melanoma patients in phase II or III trials; in some cases for more than ten years; cited from earlier work.
The subject of experiment [1] is melanoma metastasis in the pancreas. As to the kind of experiment: Patient A: prior pembrolizumab treatment, tumor response by PET-CT. The class given is in vivo, human. On the procedure:
A person (at screening on 23 May 2018) […] had been operated on 26 Sep. 2016 for left lung lobectomy for melanoma metastasis of unknown origin. On 21 Aug. 2017, biopsy of PET-CT (Positron emission tomography—computed tomography) detected a new melanoma metastasis in the pancreas. From 27 Sep. 2017 until 13 Mar. 2018 (last administration at Cycle 9) they were treated with anti-PD-1 molecule pembrolizumab. On 12 Dec. […] However, on 30 Mar. […] On 23 May 2018, the size of this unique pancreatic metastasis was 34 mm on CT-scan.

The nature of experiment [2]: Phase I study Debio 8200-IMM-101, Patient A: serum testosterone levels. It counts as in vivo, human. The settings on record: baseline Day 1 15.7 nmol/L, castrate range <1.735 nmol/L. The protocol: The study involves 3 to 12 treatment cycles (depending on individual responses) of 28 days each. Patients receive triptorelin embonate (pamoate) 3.75 mg one-month formulation i.m. on day 1 of each 28-day cycle and nivolumab (Opdivo®) at 3 mg/kg body weight i.v. (1-hour infusion) on days 1 and 15 of each cycle. On day 1 of each cycle, triptorelin is administered prior to nivolumab. In addition, patients take bicalutamide 50 mg p.o. once daily for 28 days throughout cycle 1 only, to counteract the initial testosterone “flare” induced by triptorelin.
On 12 Jun. 2018 the patient was enrolled in the protocol Debio 8200-IMM-101 and received the first injections of triptorelin -anti-androgen bicalutamide was added for 28 days- and anti-PD-1 molecule nivolumab.
As expected due to triptorelin treatment, the serum testosterone levels of the patient decreased from a baseline (Day 1) level of 15.7 nmol/L on 12 Jun. 2018 to a very low castrate level of 0.6 nmol/L four weeks later 10 Jul. 2018 (Day 29), and have remained in the castrate range (i.e. <1.735 nmol/L) until the last value available to date of 0.69 nmol/L on 29 Oct. 2018 (Day 141).

With “Ipilimumab: fully human IgG1 CTLA-4-blocking monoclonal antibody from Bristol-Myers Squibb”, the “durable survival, patients” value in the experiment on melanoma was “about 20%”.
As to “pembrolizumab: humanized IgG4 monoclonal anti-PD-1 antibody from Merck”, the tumor response entry in experiment [1] (12 Dec. 2017, pembrolizumab from 27 Sep. 2017 until 13 Mar. 2018) is given as “Partial Response (PR)”; in experiment [1] (30 Mar. 2018, PET-CT, after Cycle 9 of pembrolizumab), “progression (PD)”.
In the case of `CC(C)C[C@H](NC(=O)[C@@H](Cc1c[nH]c2ccccc12)NC(=O)[C@H](Cc1ccc(O)cc1)NC(=O)[C@H](CO)NC(=O)[C@H](Cc1c[nH]c2ccccc12)NC(=O)[C@H](Cc1c[nH]cn1)NC(=O)[C@@H]1CCC(=O)N1)C(=O)N[C@@H](CCCNC(=N)N)C(=O)N1CCC[C@H]1C(=O)NCC(N)=O` [triptorelin, pyroGlu-His-Trp-Ser-Tyr-D-Trp-Leu-Arg-Pro-Gly-NH2], the figures for the serum testosterone level in experiment [2] (Day 29 (10 Jul. 2018)) and in experiment [2] (Day 141 (29 Oct. 2018)) were 0.6 nmol/L and 0.69 nmol/L, respectively.
